Laboratory results from patent US8476005B2, “Microfluidic embedded polymer NEMS force sensors” (California Institute of Technology, priority 2008, dated 2013).

Legend:
[1] = system: individual fibroblasts (NIG-3T3); assay: Single-cell force response to a perturbing agent, measured with polymer NEMS force sensor; format: cell-based
Method: FIGS. 2a-2i illustrate NEMS-enabled single-cell force measurements with high temporal and force resolution. FIGS. 2a-2b provide optical images showing a microfluidics encapsulated force sensor, and FIG. 2c provides an electron micrograph thereof. […] The force data was acquired with a force resolution of 200 pN and a time resolution of 100 ms—25× and 300×, respectively, better than prior state of the art. FIGS. 2f-2h provide plots that show force signatures of two molecular-mechanical processes: small force oscillations, roughly 400 pN peak-to-peak, with a frequency that is monotonically dependent on the force being exerted by the lamellipodium shown in FIG. 2f, with FIG. 2g illustrating the linearity of frequency dependence.
NEMS force sensors can be used in phenotypic screening. […] Cells can then be exposed to one or more potential reagents, such as a pharmaceutical reagent, such as a drug, introduced in a carefully controlled manner using the integrated microfluidics, and the effects of the reagent(s) on the cells, such as the force exerted by the cells, is monitored. […]
The reagent can cause the cell to change in its physiology, such as conformation and/or structure, or change its force response to the reagent. […] The lengthening of the wire can then be detected. […]

cells = assay: Surface chemistry Petri dish experiments: cell adherence and spreading on treated surface; format: cell-based; conditions: surface treated with this agent only; polymer surface with gold pads
Method: FIGS. 3a-3d show results from surface chemistry Petri dish experiments. […] FIG. 3c-3d show results from complete surface chemistry process (SAM, Pluronics and fibronectin): cells are well spread on the gold and absent from the polymer A force sensor comprising a polymer surface with gold pads was used. The cells were to be attached to the pads and not to the polymer. At the beginning, both the pad and the polymer surfaces were hydrophobic, and water contact angle was about 80° on both. A self assembled monolayer was applied to the gold pads using thiol based chemistry. […] Monolayers were deposited from ethanol solutions […]. The monolayers left the gold surface hydrophilic, and water contact angle was about 25°. The polymer regions were coated with Pluronics […]). The surfaces were treated to Pluronics diluted in PBS (phosphate buffer solution), 0.02% to 1% by weight for 20-80 min. […] Pluronics left the surface hydrophilic. The gold regions were coated with Fibronectin. The surfaces were treated with fibronectin diluted in PBS, 5 ug/mL to 50 ug/mL for 20 min-4 hrs. […] FIGS. 3(c) and 3(d) show results from complete surface chemistry process (SAM, Pluronics and fibronectin), wherein cells were well spread on the gold and absent from the polymer. Thus, modifying surface chemistry allowed control of the cell adherence and/or spreading.

Compound	large, stable, quantized force steps ([1]; cell's cytoskeleton perturbed with cytochalasin D and allowed to recover in growth media) [nN]	small force oscillations, peak-to-peak ([1]; lamellipodium perturbed with cytochalasin D and recovering in growth media, frequency monotonically dependent on force exerted)	cell attachment and spreading on surface (cells)
C=C1[C@@H](C)[C@H]2[C@H](Cc3ccccc3)NC(=O)[C@]23[C@H](OC(C)=O)/C=C/[C@@](C)(O)C(=O)[C@@H](C)C/C=C/[C@H]3[C@@H]1O [cytochalasin D, Cytochalasin D]	~1	roughly 400 pN	–
fibronectin	–	–	cells were spread everywhere
